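Dose response: 5 concentrations. Exposure: 48 h. Format: 96-well plates. Endpoint: linear interpolation; highest concentration if not reached. TGI: concentration producing complete growth inhibition.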
Legend:
Test in all cases: growth of human tumour cells (NCI), 48 h
OVCAR-4 ovarian = system: OVCAR-4 ovarian
HL-60(TB) leukemia = system: HL-60(TB) leukemia
MDA-MB-231 breast = system: MDA-MB-231 breast
NCI-H460 lung = system: NCI-H460 lung
COLO 205 colon = system: COLO 205 colon
M14 melanoma = system: M14 melanoma
HOP-62 NSCLC = system: HOP-62 NSCLC
SN12C renal = system: SN12C renal
SF-539 CNS = system: SF-539 CNS
A549 NSCLC = system: A549 NSCLC
LOX IMVI melanoma = system: LOX IMVI melanoma
MALME-3M melanoma = system: MALME-3M melanoma
PC-3 prostate = system: PC-3 prostate
BT-549 breast = system: BT-549 breast
KM12 colon = system: KM12 colon
SNB-75 CNS = system: SNB-75 CNS
TK-10 renal = system: TK-10 renal
RXF 393 renal = system: RXF 393 renal
SF-295 CNS = system: SF-295 CNS
MDA-MB-435 = system: MDA-MB-435
U251 CNS = system: U251 CNS
ACHN renal = system: ACHN renal
UACC-257 melanoma = system: UACC-257 melanoma
HCT-15 colon = system: HCT-15 colon
CCRF-CEM leukemia = system: CCRF-CEM leukemia
SF-268 CNS = system: SF-268 CNS
NCI-H522 lung = system: NCI-H522 lung
HCT-116 colon = system: HCT-116 colon
SK-MEL-28 melanoma = system: SK-MEL-28 melanoma
SNB-19 CNS = system: SNB-19 CNS
UO-31 renal = system: UO-31 renal
EKVX NSCLC = system: EKVX NSCLC
SR leukemia = system: SR leukemia
K-562 leukemia = system: K-562 leukemia
NCI-H226 lung = system: NCI-H226 lung
DU-145 prostate = system: DU-145 prostate
HS 578T breast = system: HS 578T breast
CAKI-1 renal = system: CAKI-1 renal
786-0 renal = system: 786-0 renal
MCF7 breast = system: MCF7 breast
SK-MEL-2 melanoma = system: SK-MEL-2 melanoma
RPMI-8226 leukemia = system: RPMI-8226 leukemia
IGROV1 ovarian = system: IGROV1 ovarian
SK-OV-3 ovarian = system: SK-OV-3 ovarian
MDA-N = system: MDA-N
NCI-H23 lung = system: NCI-H23 lung
MOLT-4 leukemia = system: MOLT-4 leukemia
T-47D breast = system: T-47D breast
UACC-62 melanoma = system: UACC-62 melanoma
OVCAR-3 ovarian = system: OVCAR-3 ovarian
OVCAR-8 ovarian = system: OVCAR-8 ovarian
HOP-92 NSCLC = system: HOP-92 NSCLC
SK-MEL-5 melanoma = system: SK-MEL-5 melanoma
A498 renal = system: A498 renal
SW-620 colon = system: SW-620 colon
OVCAR-5 ovarian = system: OVCAR-5 ovarian
HT29 colon = system: HT29 colon
HCC-2998 colon = system: HCC-2998 colon
NCI/ADR-RES ovarian = system: NCI/ADR-RES ovarian

CC(=O)O[C@H]1C(=O)[C@@]2(C)[C@H]([C@H](OC(=O)c3ccccc3)[C@]3(O)C[C@H](OC(=O)[C@H](O)[C@@H](NC(=O)c4ccccc4)c4ccccc4C)C(C)=C1C3(C)C)[C@]1(OC(C)=O)CO[C@@H]1C[C@@H]2O
TGI (OVCAR-4 ovarian): > 23.3 µM
TGI (HL-60(TB) leukemia): 0.228 µM
TGI (MDA-MB-231 breast): > 16.1 µM
TGI (NCI-H460 lung): > 11.3 µM
TGI (COLO 205 colon): 1.79 µM
TGI (M14 melanoma): 3.02 µM
TGI (HOP-62 NSCLC): > 25 µM
TGI (SN12C renal): > 25 µM
TGI (SF-539 CNS): 1.93 µM
TGI (A549 NSCLC): > 25 µM
TGI (LOX IMVI melanoma): > 25 µM
TGI (MALME-3M melanoma): > 24 µM
TGI (PC-3 prostate): > 9.4 µM
TGI (BT-549 breast): > 11.8 µM
TGI (KM12 colon): 5.75 µM
TGI (SNB-75 CNS): 10.1 µM
TGI (TK-10 renal): 18.9 µM
TGI (RXF 393 renal): 3.97 µM
TGI (SF-295 CNS): > 9.21 µM
TGI (MDA-MB-435): 0.289 µM
TGI (U251 CNS): 6 µM
TGI (ACHN renal): > 25 µM
TGI (UACC-257 melanoma): > 11.7 µM
TGI (HCT-15 colon): > 25 µM
TGI (CCRF-CEM leukemia): 2.7 µM
TGI (SF-268 CNS): > 25 µM
TGI (NCI-H522 lung): 4.29 µM
TGI (HCT-116 colon): 9.15 µM
TGI (SK-MEL-28 melanoma): > 15.2 µM
TGI (SNB-19 CNS): > 25 µM
TGI (UO-31 renal): > 24.2 µM
TGI (EKVX NSCLC): > 25 µM
TGI (SR leukemia): 4.06 µM
TGI (K-562 leukemia): 5.08 µM
TGI (NCI-H226 lung): > 25 µM
TGI (DU-145 prostate): > 20.6 µM
TGI (HS 578T breast): 1.73 µM
TGI (CAKI-1 renal): > 25 µM
TGI (786-0 renal): 12.8 µM
TGI (MCF7 breast): > 16.1 µM
TGI (SK-MEL-2 melanoma): 11.5 µM
TGI (RPMI-8226 leukemia): 1.03 µM
TGI (IGROV1 ovarian): > 25 µM
TGI (SK-OV-3 ovarian): > 12.7 µM
TGI (MDA-N): 0.392 µM
TGI (NCI-H23 lung): > 11.6 µM
TGI (MOLT-4 leukemia): 5.35 µM
TGI (T-47D breast): > 25 µM
TGI (UACC-62 melanoma): > 15.8 µM
TGI (OVCAR-3 ovarian): 4.87 µM
TGI (OVCAR-8 ovarian): 12.7 µM
TGI (HOP-92 NSCLC): 24.2 µM
TGI (SK-MEL-5 melanoma): 3.05 µM
TGI (A498 renal): 9.4 µM
TGI (SW-620 colon): > 25 µM
TGI (OVCAR-5 ovarian): 4.74 µM
TGI (HT29 colon): 18.4 µM
TGI (HCC-2998 colon): 7.11 µM
TGI (NCI/ADR-RES ovarian): > 25 µM

CCC(=O)/C=C/c1ccccc1
TGI (OVCAR-4 ovarian): > 100 µM
TGI (HL-60(TB) leukemia): > 100 µM
TGI (MDA-MB-231 breast): > 100 µM
TGI (NCI-H460 lung): > 100 µM
TGI (COLO 205 colon): > 100 µM
TGI (M14 melanoma): > 100 µM
TGI (HOP-62 NSCLC): > 100 µM
TGI (SN12C renal): > 100 µM
TGI (SF-539 CNS): > 100 µM
TGI (A549 NSCLC): > 100 µM
TGI (LOX IMVI melanoma): > 100 µM
TGI (MALME-3M melanoma): > 100 µM
TGI (PC-3 prostate): > 100 µM
TGI (BT-549 breast): > 100 µM
TGI (KM12 colon): 42.9 µM
TGI (SNB-75 CNS): > 100 µM
TGI (TK-10 renal): > 100 µM
TGI (RXF 393 renal): > 100 µM
TGI (SF-295 CNS): > 100 µM
TGI (MDA-MB-435): > 100 µM
TGI (U251 CNS): > 100 µM
TGI (ACHN renal): > 100 µM
TGI (UACC-257 melanoma): > 100 µM
TGI (HCT-15 colon): > 100 µM
TGI (CCRF-CEM leukemia): > 100 µM
TGI (SF-268 CNS): > 100 µM
TGI (NCI-H522 lung): > 100 µM
TGI (HCT-116 colon): > 100 µM
TGI (SK-MEL-28 melanoma): > 100 µM
TGI (SNB-19 CNS): > 100 µM
TGI (UO-31 renal): > 100 µM
TGI (EKVX NSCLC): > 100 µM
TGI (SR leukemia): > 100 µM
TGI (K-562 leukemia): > 100 µM
TGI (NCI-H226 lung): > 100 µM
TGI (DU-145 prostate): > 100 µM
TGI (HS 578T breast): > 100 µM
TGI (CAKI-1 renal): > 100 µM
TGI (786-0 renal): > 100 µM
TGI (MCF7 breast): > 100 µM
TGI (SK-MEL-2 melanoma): > 100 µM
TGI (RPMI-8226 leukemia): > 100 µM
TGI (IGROV1 ovarian): > 100 µM
TGI (SK-OV-3 ovarian): > 100 µM
TGI (MDA-N): > 100 µM
TGI (NCI-H23 lung): > 100 µM
TGI (MOLT-4 leukemia): 89.2 µM
TGI (T-47D breast): > 100 µM
TGI (UACC-62 melanoma): > 100 µM
TGI (OVCAR-3 ovarian): > 100 µM
TGI (OVCAR-8 ovarian): > 100 µM
TGI (HOP-92 NSCLC): > 100 µM
TGI (SK-MEL-5 melanoma): > 100 µM
TGI (A498 renal): > 100 µM
TGI (SW-620 colon): > 100 µM
TGI (OVCAR-5 ovarian): > 100 µM
TGI (HT29 colon): > 100 µM
TGI (HCC-2998 colon): > 100 µM
TGI (NCI/ADR-RES ovarian): > 100 µM

Reference: PubChem BioAssay (NCI)
